# Biological target: GluA1o-γ8 (GRIA1o-CACNG8 fusion construct) (Homo sapiens (Human), UniProt P42261+Q8WXS5)
# Assay: Calcium flux assay (FLIPR), inhibition of TARP γ8 dependent AMPA receptor activity
# Assay type: cell-based
# Conditions: GluA1o-γ8 (GRIA1o-CACNG8 fusion) in HEK293 cells, calcium flux after 15 μM glutamate
# How it was run: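 Glutamate (15 μM) was added to a stable HEK293 line carrying the GluA1o–γ8 fusion, which had been preincubated with compound and calcium dye in HEPES buffer, pH 7.4. Normalized FLIPR fluorescence (no compound vs 10 μM CP465022) was fitted with four parameters; pIC50 is the midpoint's negative log.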
# Sequence of GluA1o-γ8 (GRIA1o-CACNG8 fusion construct) (P42261 other isoform, or with tags, fused parts or gaps): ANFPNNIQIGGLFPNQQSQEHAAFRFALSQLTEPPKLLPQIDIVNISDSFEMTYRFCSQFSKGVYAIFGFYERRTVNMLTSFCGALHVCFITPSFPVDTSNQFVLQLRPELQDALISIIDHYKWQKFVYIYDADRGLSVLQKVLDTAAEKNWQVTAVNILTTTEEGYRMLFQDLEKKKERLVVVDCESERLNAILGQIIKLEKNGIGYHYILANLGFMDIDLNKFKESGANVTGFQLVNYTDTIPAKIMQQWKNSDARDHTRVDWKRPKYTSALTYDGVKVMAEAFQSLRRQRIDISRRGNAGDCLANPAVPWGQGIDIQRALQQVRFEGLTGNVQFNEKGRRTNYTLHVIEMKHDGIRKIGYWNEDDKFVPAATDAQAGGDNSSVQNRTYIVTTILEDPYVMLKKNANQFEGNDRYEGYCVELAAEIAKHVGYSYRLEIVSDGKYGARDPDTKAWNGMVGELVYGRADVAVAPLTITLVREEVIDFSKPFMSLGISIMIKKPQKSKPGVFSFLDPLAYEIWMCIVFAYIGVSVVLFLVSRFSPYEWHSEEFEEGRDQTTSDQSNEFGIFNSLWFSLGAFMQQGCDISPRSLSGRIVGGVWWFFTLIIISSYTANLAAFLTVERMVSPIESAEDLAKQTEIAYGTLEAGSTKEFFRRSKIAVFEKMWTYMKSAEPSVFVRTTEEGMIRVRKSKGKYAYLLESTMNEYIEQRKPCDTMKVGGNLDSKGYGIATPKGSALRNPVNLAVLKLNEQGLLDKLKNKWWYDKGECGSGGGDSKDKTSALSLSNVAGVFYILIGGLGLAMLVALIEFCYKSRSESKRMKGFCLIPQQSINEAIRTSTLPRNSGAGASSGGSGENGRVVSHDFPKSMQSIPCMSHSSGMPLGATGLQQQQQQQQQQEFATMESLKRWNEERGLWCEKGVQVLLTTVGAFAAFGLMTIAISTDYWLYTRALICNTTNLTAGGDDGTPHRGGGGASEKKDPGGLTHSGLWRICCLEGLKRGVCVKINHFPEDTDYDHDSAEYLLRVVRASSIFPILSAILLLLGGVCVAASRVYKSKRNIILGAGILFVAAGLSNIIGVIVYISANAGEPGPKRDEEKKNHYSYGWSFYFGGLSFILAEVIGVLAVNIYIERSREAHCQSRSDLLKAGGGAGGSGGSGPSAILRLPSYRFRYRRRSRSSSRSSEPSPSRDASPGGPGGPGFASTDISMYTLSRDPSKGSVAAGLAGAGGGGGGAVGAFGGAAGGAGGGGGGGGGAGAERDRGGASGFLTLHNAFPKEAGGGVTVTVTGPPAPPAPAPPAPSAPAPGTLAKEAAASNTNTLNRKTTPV
row,SMILES,IC50
1,"OCc1cc2ccc(C(F)(F)F)nc2n1-c1ccc2[nH]ncc2c1 [Example 330, (1-(1H-Indazol-5-yl)-6-(trifluoromethyl)-1H-pyrrolo[2,3-b]pyridin-2-yl)methanol]",25.1 nM
2,"Cc1cc2cccnc2n1-c1cc(Cl)c2[nH]ncc2c1 [Example 333, 1-(7-Chloro-1H-indazol-5-yl)-2-methyl-pyrrolo[2,3-b]pyridine]",6.31 nM
3,"Cc1cc2cccnc2n1-c1cc(Cl)c2c(c1)CC(=O)N2 [Example 338, 7-Chloro-5-(2-methylpyrrolo[2,3-b]pyridin-1-yl)indolin-2-one]",7.94 nM
4,"Cc1cc(-n2cc(O)c3ccc(C(F)(F)F)nc32)cc2cn[nH]c12 [Example 339, 1-(7-Methyl-1H-indazol-5-yl)-6-(trifluoromethyl)pyrrolo[2,3-b]pyridin-3-ol]",79.4 nM
5,"Cc1cc(-n2cc(C(F)F)c3ccc(C(F)(F)F)nc32)cc2cn[nH]c12 [Example 340, 3-(Difluoromethyl)-1-(7-methyl-1H-indazol-5-yl)-6-(trifluoromethyl)pyrrolo[2,3-b]pyridine]",12.6 nM
6,"Cc1ccc2ccn(-c3cc(C)c4[nH]ncc4c3)c2n1 [Example 341, 6-Methyl-1-(7-methyl-1H-indazol-5-yl)pyrrolo[2,3-b]pyridine]",15.8 nM
7,"COc1ccc2cc(-c3ccc(F)cc3)n(-c3ccc4[nH]ccc4c3)c2n1 [Example 343, 2-(4-Fluorophenyl)-1-(1H-indol-5-yl)-6-methoxy-pyrrolo[2,3-b]pyridine]",631 nM
8,"Fc1ccc(-c2cc3cccnc3n2-c2ccc3c(c2)CCN3)cc1 [Example 344, 2-(4-Fluorophenyl)-1-indolin-5-yl-pyrrolo[2,3-b]pyridine]",501 nM
9,"Fc1ccc(-c2cc3cccnc3n2-c2ccc3[nH]ccc3c2)cc1 [Example 345, 2-(4-Fluorophenyl)-1-(1H-indol-5-yl)pyrrolo[2,3-b]pyridine]",79.4 nM
10,"O=C1Cc2cc(-n3c(-c4ccc(F)cc4)c(Br)c4cccnc43)ccc2N1 [Example 346, 5-[3-Bromo-2-(4-fluorophenyl)pyrrolo[2,3-b]pyridin-1-yl]indolin-2-one]",3.98 nM
11,"O=C1Cc2cc(-n3c(-c4ccc(F)cc4)cc4cccnc43)ccc2N1 [Example 347, 5-[2-(4-Fluorophenyl)pyrrolo[2,3-b]pyridin-1-yl]indolin-2-one]",2.51 nM
12,"Fc1ccc(-c2cc3ccc(F)nc3n2-c2ccc3[nH]ccc3c2)cc1 [Example 348, 6-Fluoro-2-(4-fluorophenyl)-1-(1H-indol-5-yl)pyrrolo[2,3-b]pyridine]",100 nM
13,"O=C1Cc2cc(-n3c(-c4ccc(F)cc4)c(Br)c4ccc(F)nc43)ccc2N1 [Example 349, 5-[3-Bromo-6-fluoro-2-(4-fluorophenyl)pyrrolo[2,3-b]pyridin-1-yl]indolin-2-one]",3.98 nM
14,"Cc1cc2ccc(C(F)(F)F)nc2n1-c1ccc2[nH]ccc2c1 [Example 351, 1-(1H-Indol-5-yl)-2-methyl-6-(trifluoromethyl)pyrrolo[2,3-b]pyridine]",25.1 nM
15,"Cc1cc(-n2c(C)cc3cccnc32)cc2c1NC(=O)C2 [Example 353, 7-Methyl-5-(2-methyl-1H-pyrrolo[2,3-b]pyridin-1-yl)indolin-2-one]",12.6 nM
16,"Cc1cc(-n2c(C3CC3)cc3cccnc32)cc2c1NC(=O)C2 [Example 359, 5-(2-Cyclopropylpyrrolo[2,3-b]pyridin-1-yl)-7-methyl-indolin-2-one]",10 nM
17,"CC(C)c1cc2cccnc2n1-c1cc(F)c2c(c1)CC(=O)N2 [Example 361, 7-Fluoro-5-(2-isopropylpyrrolo[2,3-b]pyridin-1-yl)indolin-2-one]",7.94 nM
18,"Cc1cc2cccnc2n1-c1cc(F)c2c(c1)CC(=O)N2 [Example 363, 7-Fluoro-5-(2-methylpyrrolo[2,3-b]pyridin-1-yl)indolin-2-one]",200 nM
19,"Cc1cc2ccc(C(F)(F)F)nc2n1-c1cc(F)c2c(c1)CC(=O)N2 [Example 364, 7-Fluoro-5-[2-methyl-6-(trifluoromethyl)pyrrolo[2,3-b]pyridin-1-yl]indolin-2-one]",3160 nM

# Molecules with a lower IC50, results first:
row,IC50,SMILES
1,0.0501 nM,"FC(F)c1ccc2nc(C(F)(F)F)n(-c3cc(Cl)c4[nH]ncc4c3)c2n1 [Example 324, 3-(7-Chloro-1H-indazol-5-yl)-5-(difluoromethyl)-2-(trifluoromethyl)imidazo[4,5-b]pyridine]"
2,0.316 nM,"O=C1Cc2cc(-n3c(C(F)(F)F)nc4ccc(C(F)F)nc43)cc(F)c2N1 [Example 325, 5-[5-(Difluoromethyl)-2-(trifluoromethyl)imidazo[4,5-b]pyridin-3-yl]-7-fluoro-indolin-2-one]"
3,0.0398 nM,"Cc1cc(-n2c(C(F)(F)F)nc3ccc(C(F)F)nc32)cc2cn[nH]c12 [Example 326, 5-(Difluoromethyl)-3-(7-methyl-1H-indazol-5-yl)-2-(trifluoromethyl)imidazo[4,5-b]pyridine]"
4,0.251 nM,"Cc1ccc2nc(-c3ccnc(F)c3)n(-c3cc(Cl)c4[nH]ncc4c3)c2n1 [Example 327, 3-(7-Chloro-1H-indazol-5-yl)-2-(2-fluoro-4-pyridyl)-5-methyl-imidazo[4,5-b]pyridine]"
5,1 nM,"Cc1cc(-n2c(CO)cc3ccc(C(F)(F)F)nc32)cc2c1NC(=O)C2 [Example 329, 5-(2-(Hydroxymethyl)-6-(trifluoromethyl)-1H-pyrrolo[2,3-b]pyridin-1-yl)-7-methylindolin-2-one]"
6,0.01 nM,"Cc1cc(-n2c(C)cc3ccc(C(F)(F)F)nc32)cc2c1NC(=O)C2 [Example 331, 7-Methyl-5-(2-methyl-6-(trifluoromethyl)-1H-pyrrolo[2,3-b]pyridin-1-yl)indolin-2-one]"
7,0.0398 nM,"Cc1cc(-n2c(C(C)C)cc3cccnc32)cc2cn[nH]c12 [Example 332, 5-(2-Isopropyl-1H-pyrrolo[2,3-b]pyridin-1-yl)-7-methyl-1H-indazole]"
8,0.0398 nM,"Cc1cc(-n2c(C(C)C)cc3ccc(C(F)F)nc32)cc2c1NC(=O)C2 [Example 334, 5-[6-(Difluoromethyl)-2-isopropyl-pyrrolo[2,3-b]pyridin-1-yl]-7-methyl-indolin-2-one]"
9,0.0158 nM,"CC(C)c1cc2ccc(C(F)(F)F)nc2n1-c1ccc2[nH]ncc2c1 [Example 335, 1-(1H-Indazol-5-yl)-2-isopropyl-6-(trifluoromethyl)pyrrolo[2,3-b]pyridine]"
10,0.01 nM,"Cc1cc(-n2c(C(F)F)cc3ccc(C(F)(F)F)nc32)cc2c1NC(=O)C2 [Example 336, 5-[2-(Difluoromethyl)-6-(trifluoromethyl)pyrrolo[2,3-b]pyridin-1-yl]-7-methyl-indolin-2-one]"
11,0.126 nM,"O=c1[nH]c2ccc(-n3c(C(F)F)cc4ccc(C(F)(F)F)nc43)cc2s1 [Example 337, 6-[2-(Difluoromethyl)-6-(trifluoromethyl)pyrrolo[2,3-b]pyridin-1-yl]-3H-1,3-benzothiazol-2-one]"
12,0.251 nM,"Cc1ccc2cc(C(C)C)n(-c3ccc4c(c3)CC(=O)N4)c2n1 [Example 342, 5-(2-Isopropyl-6-methyl-pyrrolo 2,3-bpyridin-1-yl)indolin-2-one]"
13,0.794 nM,"O=C1Cc2cc(-n3c(-c4ccc(F)cc4)cc4ccc(F)nc43)ccc2N1 [Example 350, 5-[6-Fluoro-2-(4-fluorophenyl)pyrrolo[2,3-b]pyridin-1-yl]indolin-2-one]"
14,0.501 nM,"Cc1cc2ccc(C(F)(F)F)nc2n1-c1ccc2c(c1)CC(=O)N2 [Example 352, 5-[2-Methyl-6-(trifluoromethyl)pyrrolo[2,3-b]pyridin-1-yl]indolin-2-one]"
15,0.501 nM,"Cc1cc2ccc(C(F)(F)F)nc2n1-c1ccc2[nH]ncc2c1 [Example 354, 5-(2-Methyl-6-(trifluoromethyl)-1H-pyrrolo[2,3-b]pyridin-1-yl)-1H-indazole]"
16,0.02 nM,"Cc1cc2ccc(C(F)(F)F)nc2n1-c1ccc2[nH]c(=O)sc2c1 [Example 355, 6-(2-Methyl-6-(trifluoromethyl)-1H-pyrrolo[2,3-b]pyridin-1-yl)benzo[d]thiazol-2(3H)-one]"
17,0.02 nM,"CC(C)c1cc2cccnc2n1-c1cc(Cl)c2[nH]ncc2c1 [Example 356, 1-(7-Chloro-1H-indazol-5-yl)-2-isopropyl-pyrrolo[2,3-b]pyridine]"
18,0.0316 nM,"CC(C)c1cc2cccnc2n1-c1cc(Cl)c2c(c1)CC(=O)N2 [Example 357, 7-Chloro-5-(2-isopropylpyrrolo[2,3-b]pyridin-1-yl)indolin-2-one]"
19,0.2 nM,"Cc1cc(-n2c(C(C)C)cc3cccnc32)cc2c1NC(=O)C2 [Example 358, 5-(2-Isopropylpyrrolo[2,3-b]pyridin-1-yl)-7-methyl-indolin-2-one]"
20,0.0631 nM,"Cc1ccc2cc(C(C)C)n(-c3cc(C)c4c(c3)CC(=O)N4)c2n1 [Example 360, 5-(2-Isopropyl-6-methyl-pyrrolo[2,3-b]pyridin-1-yl)-7-methyl-indolin-2-one]"
21,0.0398 nM,"Cc1ccc2cc(C(C)C)n(-c3cc(F)c4c(c3)CC(=O)N4)c2n1 [Example 362, 7-Fluoro-5-(2-isopropyl-6-methyl-pyrrolo[2,3-b]pyridin-1-yl)indolin-2-one]"
22,0.631 nM,"COCc1cc2ccc(C(F)(F)F)nc2n1-c1cc(F)c2c(c1)CC(=O)N2 [Example 366, 7-Fluoro-5-[2-(methoxymethyl)-6-(trifluoromethyl)pyrrolo[2,3-b]pyridin-1-yl]indolin-2-one]"
23,0.0251 nM,"Cc1cc(-n2c(C(C)C)cc3ccc(C(F)(F)F)nc32)cc2c1NC(=O)C2 [Example 367, 5-[2-Isopropyl-6-(trifluoromethyl)pyrrolo[2,3-b]pyridin-1-yl]-7-methyl-indolin-2-one]"
24,0.00794 nM,"CC(C)c1cc2ccc(C(F)(F)F)nc2n1-c1cc(F)c2c(c1)CC(=O)N2 [Example 369, 7-Fluoro-5-[2-isopropyl-6-(trifluoromethyl)pyrrolo[2,3-b]pyridin-1-yl]indolin-2-one]"
